In general, IC50 refers to the concentration needed to halve the response being measured. The term EC50 denotes the concentration that produces a half-maximal response. The low end stands for greater potency, the high end for weaker potency.

One data set addresses T1, USP22 (Homo sapiens, UniProt Q9UPT9).
T1 sequence (Q9UPT9 1-525): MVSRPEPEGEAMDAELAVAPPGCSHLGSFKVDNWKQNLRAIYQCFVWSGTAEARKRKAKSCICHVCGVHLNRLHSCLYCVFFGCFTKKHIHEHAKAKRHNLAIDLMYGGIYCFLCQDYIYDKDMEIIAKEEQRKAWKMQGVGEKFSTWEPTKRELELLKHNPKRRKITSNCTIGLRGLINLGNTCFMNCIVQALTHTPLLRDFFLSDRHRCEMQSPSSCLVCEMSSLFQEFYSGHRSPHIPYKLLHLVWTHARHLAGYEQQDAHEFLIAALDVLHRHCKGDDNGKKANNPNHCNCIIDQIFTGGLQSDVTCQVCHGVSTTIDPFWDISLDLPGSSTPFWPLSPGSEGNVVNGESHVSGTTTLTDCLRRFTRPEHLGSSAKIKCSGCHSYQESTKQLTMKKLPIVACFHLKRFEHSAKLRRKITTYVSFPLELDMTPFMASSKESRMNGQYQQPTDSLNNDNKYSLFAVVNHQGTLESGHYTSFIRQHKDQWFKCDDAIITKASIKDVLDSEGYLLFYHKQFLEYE
T1 sequence (Q14CW9 1-347 partner): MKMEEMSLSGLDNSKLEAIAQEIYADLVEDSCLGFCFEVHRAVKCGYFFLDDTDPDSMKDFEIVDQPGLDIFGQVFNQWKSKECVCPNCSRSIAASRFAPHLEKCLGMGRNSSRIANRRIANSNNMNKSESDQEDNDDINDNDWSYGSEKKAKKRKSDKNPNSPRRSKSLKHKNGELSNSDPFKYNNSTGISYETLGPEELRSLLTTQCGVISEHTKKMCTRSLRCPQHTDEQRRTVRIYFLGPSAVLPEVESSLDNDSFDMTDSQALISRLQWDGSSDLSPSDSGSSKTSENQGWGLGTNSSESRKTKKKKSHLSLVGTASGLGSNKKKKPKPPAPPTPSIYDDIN
T1 sequence (Q9NPA8 1-101 partner): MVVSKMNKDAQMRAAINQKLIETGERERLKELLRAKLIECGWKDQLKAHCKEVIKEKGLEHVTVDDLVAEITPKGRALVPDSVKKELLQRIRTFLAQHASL
The data set is described as follows: Biochemical DUB selectivity profiling assay: USP22. Particulars: Ub-Rho110 400 nM, buffer B; read-out: Biochemical IC50 range, USP22. The method, then: (§1) DUB Assay Substrate Substrate
(§2) Buffer Concentration (nM) […]
(§3) Sepharose® 4B resin (GE Healthcare).
(§4) 10 kDa molecular weight cut-off (MWCO)).
(§5) Fractions containing protein
(§6) Protein concentration was […]
(§7) reaction volume of 21 μL. […]
(§8) compound (final concentration 5 nM).
(§9) IC50 values were determined
(§10) Biochemical DUB selectivity profiling assays […]
(§11) in 40 µL total reaction volume.

Another data set deals with T2, USP28 (Homo sapiens, UniProt Q96RU2).
T2 sequence (Q96RU2 1-1077): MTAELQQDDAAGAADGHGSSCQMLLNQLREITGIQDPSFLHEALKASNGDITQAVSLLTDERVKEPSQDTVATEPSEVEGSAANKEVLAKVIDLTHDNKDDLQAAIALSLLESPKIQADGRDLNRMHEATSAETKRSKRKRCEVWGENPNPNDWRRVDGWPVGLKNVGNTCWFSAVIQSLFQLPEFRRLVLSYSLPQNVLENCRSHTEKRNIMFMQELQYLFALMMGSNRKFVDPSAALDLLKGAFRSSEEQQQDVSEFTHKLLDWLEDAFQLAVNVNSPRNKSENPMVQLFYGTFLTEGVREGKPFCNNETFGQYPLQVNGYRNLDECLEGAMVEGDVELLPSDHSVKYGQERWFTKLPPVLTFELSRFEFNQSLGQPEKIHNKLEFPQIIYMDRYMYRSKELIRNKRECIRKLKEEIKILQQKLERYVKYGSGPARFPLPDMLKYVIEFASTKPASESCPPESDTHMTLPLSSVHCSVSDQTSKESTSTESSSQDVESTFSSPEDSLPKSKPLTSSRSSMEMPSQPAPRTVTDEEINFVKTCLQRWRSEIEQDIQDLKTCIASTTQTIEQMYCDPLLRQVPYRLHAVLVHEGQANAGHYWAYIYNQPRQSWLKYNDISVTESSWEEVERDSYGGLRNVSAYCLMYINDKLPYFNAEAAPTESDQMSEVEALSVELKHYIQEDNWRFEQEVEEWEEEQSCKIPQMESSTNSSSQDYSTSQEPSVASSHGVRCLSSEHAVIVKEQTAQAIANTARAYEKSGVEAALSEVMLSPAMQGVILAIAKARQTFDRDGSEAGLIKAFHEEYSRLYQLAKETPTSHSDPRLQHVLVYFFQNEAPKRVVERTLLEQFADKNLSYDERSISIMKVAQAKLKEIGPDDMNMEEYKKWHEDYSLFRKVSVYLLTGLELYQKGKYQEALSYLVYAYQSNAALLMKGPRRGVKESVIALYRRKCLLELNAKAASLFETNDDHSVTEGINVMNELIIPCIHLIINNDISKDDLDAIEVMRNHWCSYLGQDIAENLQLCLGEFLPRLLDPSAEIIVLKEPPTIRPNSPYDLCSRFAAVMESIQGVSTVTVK
Description: Biochemical DUB selectivity profiling assay: USP28. Conditions: Ub-Lys-TAMRA 50 nM, buffer B; read-out: Biochemical IC50 range, USP28. On the procedure: as §1, §2, §3, §4, §5, §6, §7, §8, §9, §10, §11

The target in the next data set is USP34 (Homo sapiens, UniProt Q70CQ2). Description: Biochemical DUB selectivity profiling assay: USP34. Particulars: Ub-Rho110 400 nM, buffer B; read-out: Biochemical IC50 range, USP34. The method, then: as §1, §2, §3, §4, §5, §6, §7, §8, §9, §10, §11
Data set [1] addresses T3, UCHL3 (Homo sapiens, UniProt P15374).
T3 sequence (P15374 1-230): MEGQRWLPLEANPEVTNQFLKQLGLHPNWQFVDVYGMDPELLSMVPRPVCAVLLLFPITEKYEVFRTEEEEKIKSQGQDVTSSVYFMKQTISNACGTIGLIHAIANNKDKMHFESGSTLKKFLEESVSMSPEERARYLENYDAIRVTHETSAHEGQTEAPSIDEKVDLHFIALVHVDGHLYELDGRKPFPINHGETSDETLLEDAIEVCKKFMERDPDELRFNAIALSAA
Description: Biochemical DUB selectivity profiling assay: UCHL3. Conditions: Ub-Lys-TAMRA 50 nM, buffer A; read-out: Biochemical IC50 range, UCHL3. On the procedure: as §1, §2, §3, §4, §5, §6, §7, §8, §9, §10, §11

Another data set concerns the target USP10 (Homo sapiens, UniProt Q14694). Description: biochemical.
The nature of data set [2]: FMT assay, cell number (DAPI nuclei count). Particulars: human.
The target of data set [3] is T3, UCHL3. Description: In-cell proteome-wide competitive ABPP, HEK293: UCHL3. Particulars: for Log2 reporter intensity values: UCHL3: DMSO substract (FC); for Log2 reporter intensity values: UCHL3 / Log2 reporter intensity values: replicates A-C; for Log2 reporter intensity values: UCHL3, DMSO subtracted.

SMILES strings stand for the structures. “And” between values parts separate entries of the source, which are not always exact repeats. Identical values can stand only once.

Sequence of USP10 (Q14694 whole entry): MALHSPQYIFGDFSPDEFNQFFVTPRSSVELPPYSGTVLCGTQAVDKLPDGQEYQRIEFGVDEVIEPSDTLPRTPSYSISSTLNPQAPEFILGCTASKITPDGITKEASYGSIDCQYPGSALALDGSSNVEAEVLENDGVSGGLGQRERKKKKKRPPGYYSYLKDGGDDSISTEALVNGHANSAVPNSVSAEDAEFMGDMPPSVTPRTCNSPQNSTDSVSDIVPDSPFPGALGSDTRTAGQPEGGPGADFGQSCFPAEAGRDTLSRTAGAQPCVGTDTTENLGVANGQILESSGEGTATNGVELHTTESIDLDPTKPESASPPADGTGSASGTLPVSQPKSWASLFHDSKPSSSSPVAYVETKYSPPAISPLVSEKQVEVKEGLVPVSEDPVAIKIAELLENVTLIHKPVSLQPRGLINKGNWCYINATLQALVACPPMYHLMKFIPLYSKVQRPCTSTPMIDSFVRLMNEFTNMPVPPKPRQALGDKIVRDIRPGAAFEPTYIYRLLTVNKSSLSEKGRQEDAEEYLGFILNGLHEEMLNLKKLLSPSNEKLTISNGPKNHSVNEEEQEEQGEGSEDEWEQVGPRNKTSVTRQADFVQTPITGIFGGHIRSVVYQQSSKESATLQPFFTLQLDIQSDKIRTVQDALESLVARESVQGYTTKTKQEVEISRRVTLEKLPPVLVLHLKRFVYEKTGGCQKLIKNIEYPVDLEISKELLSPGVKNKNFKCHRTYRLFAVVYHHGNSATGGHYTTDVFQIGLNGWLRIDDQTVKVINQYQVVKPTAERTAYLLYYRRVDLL
Sequence of USP34 (Q70CQ2 whole entry): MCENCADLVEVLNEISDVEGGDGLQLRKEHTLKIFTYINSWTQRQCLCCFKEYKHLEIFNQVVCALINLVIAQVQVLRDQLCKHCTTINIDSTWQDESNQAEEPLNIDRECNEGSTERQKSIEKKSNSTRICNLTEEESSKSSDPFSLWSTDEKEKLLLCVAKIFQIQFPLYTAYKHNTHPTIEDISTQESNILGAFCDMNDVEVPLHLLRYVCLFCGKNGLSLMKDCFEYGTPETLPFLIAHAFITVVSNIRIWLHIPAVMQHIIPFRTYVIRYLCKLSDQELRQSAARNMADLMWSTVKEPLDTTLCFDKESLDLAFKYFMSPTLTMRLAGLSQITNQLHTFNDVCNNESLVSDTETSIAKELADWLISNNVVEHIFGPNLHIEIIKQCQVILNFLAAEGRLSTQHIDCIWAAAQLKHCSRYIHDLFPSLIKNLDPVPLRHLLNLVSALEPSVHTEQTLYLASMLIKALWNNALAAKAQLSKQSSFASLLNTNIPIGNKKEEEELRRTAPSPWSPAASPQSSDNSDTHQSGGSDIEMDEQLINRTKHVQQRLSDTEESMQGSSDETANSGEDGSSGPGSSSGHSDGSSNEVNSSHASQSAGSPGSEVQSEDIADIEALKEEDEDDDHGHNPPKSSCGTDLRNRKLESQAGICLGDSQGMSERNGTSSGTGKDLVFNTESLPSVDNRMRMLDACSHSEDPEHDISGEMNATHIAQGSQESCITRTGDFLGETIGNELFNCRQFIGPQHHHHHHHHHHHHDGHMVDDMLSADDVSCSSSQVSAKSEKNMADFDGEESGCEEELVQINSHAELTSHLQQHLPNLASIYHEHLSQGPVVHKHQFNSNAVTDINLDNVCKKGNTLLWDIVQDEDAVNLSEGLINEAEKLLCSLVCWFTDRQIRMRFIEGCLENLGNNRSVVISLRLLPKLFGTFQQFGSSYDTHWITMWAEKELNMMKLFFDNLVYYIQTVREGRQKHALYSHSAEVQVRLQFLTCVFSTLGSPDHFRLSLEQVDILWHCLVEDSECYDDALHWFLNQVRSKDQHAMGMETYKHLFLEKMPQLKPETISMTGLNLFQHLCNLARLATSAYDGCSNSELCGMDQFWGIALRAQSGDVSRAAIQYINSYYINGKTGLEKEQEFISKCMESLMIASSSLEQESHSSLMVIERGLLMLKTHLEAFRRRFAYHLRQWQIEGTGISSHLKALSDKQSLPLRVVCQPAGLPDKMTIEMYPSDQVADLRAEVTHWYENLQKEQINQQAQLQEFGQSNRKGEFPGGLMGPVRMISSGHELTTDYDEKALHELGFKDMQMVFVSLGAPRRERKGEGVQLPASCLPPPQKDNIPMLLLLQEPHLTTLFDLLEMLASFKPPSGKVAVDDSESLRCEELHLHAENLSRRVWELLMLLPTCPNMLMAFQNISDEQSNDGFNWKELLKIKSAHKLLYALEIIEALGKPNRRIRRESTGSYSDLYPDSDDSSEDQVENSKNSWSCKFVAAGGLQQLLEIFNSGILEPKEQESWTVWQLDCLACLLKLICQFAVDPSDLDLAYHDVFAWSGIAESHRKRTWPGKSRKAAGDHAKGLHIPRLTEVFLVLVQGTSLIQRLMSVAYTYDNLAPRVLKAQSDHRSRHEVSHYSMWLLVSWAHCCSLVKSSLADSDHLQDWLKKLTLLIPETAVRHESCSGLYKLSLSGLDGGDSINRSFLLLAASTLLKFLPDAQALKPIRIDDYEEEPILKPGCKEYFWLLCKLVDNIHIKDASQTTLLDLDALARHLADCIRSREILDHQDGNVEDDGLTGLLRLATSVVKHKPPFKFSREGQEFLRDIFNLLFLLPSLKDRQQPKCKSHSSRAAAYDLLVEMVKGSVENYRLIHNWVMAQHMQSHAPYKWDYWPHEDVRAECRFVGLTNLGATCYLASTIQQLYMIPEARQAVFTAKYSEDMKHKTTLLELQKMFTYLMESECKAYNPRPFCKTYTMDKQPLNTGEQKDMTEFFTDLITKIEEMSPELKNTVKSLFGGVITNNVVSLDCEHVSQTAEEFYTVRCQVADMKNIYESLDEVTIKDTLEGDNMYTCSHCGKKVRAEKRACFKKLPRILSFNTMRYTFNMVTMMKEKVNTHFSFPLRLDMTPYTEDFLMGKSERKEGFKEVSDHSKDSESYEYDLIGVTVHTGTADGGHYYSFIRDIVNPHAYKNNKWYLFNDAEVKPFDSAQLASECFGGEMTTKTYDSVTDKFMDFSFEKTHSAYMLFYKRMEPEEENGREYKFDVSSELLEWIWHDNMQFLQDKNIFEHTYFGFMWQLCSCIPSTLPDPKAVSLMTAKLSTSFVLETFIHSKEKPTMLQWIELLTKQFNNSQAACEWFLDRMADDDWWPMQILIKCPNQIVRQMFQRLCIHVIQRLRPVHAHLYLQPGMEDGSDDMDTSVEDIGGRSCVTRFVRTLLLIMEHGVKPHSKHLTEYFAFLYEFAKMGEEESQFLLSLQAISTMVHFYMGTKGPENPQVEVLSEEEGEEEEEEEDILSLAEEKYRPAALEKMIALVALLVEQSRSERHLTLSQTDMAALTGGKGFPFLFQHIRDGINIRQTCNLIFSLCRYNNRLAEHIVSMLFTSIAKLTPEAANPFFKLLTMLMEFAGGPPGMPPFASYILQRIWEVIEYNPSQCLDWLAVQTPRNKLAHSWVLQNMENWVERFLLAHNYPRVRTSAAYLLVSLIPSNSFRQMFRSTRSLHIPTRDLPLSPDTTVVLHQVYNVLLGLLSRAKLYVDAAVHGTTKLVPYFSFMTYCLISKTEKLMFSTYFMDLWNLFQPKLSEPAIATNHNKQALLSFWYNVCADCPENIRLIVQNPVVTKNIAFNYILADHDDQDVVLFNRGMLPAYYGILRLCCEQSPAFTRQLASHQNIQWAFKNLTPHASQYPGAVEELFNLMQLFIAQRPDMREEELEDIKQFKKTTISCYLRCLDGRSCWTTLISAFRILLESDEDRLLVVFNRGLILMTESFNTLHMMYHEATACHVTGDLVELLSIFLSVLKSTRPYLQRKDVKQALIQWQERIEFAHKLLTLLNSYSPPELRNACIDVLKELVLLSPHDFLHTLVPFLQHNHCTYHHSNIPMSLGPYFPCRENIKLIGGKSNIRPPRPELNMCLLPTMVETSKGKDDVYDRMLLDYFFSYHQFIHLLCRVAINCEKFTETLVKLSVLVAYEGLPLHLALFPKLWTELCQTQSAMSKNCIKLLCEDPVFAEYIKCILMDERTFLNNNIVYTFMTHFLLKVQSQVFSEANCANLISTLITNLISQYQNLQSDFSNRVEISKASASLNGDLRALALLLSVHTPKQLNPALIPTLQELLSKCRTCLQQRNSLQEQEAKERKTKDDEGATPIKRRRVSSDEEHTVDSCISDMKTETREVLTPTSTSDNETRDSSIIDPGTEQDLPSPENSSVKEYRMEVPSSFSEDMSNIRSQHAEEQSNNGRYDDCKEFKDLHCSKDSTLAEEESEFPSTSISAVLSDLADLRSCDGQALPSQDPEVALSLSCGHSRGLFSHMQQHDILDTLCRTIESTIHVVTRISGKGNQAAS

With `N#CN1CCC[C@H]1C(=O)N1CCc2c(-c3c[nH]c4ncccc34)cccc21` [Compound 1], the IC50 was > 10 µM at USP22; > 10 µM on USP28; 1 to 10 µM on USP34; 1 to 10 µM on UCHL3 [1]; > 10 µM at USP10. The 50% effective concentration (EC50) at 3 days in data set [2] is ~11 µM. Moreover, the “Log2 reporter intensity values: UCHL3” value is 0.8904 and 1.311 and 0.2787 at UCHL3 [3] (1 at 1 μM, competition with ABP 2); 0.7742 and 0.7243 and 0.9234 at UCHL3 [3] (1 at 4 μM, competition with ABP 2). For the same compound, the “UCHL3 response in proteome-wide competitive ABPP” value at UCHL3 [3] (HEK293, compound 60 min, then 2 (20 nM) 10 min) is “small response”. In addition, the “Log2 reporter intensity values” was -0.1178 and 0.3024 and -0.7296 on UCHL3 [3] (1_1 μM); -0.234 and -0.284 and -0.08483 on UCHL3 [3] (1_4 μM); -0.1675 and 0.3902 and -1.8434 at UCHL3 [3] (1 at 1 μM); -0.3692 and -0.4654 and -0.115 at UCHL3 [3] (1 at 4 μM).

For the compound `C#Cc1cnc2[nH]cc(-c3cccc4c3CCN4C(=O)[C@@H]3CCCN3C#N)c2c1` [Compound 2], the concentration for half-maximal inhibition (IC50) was > 10 µM on USP22, > 10 µM on USP28, 1 to 10 µM at USP34 and 1 to 10 µM on UCHL3 [1]. Further, the EC50 at 3 days in data set [2] was ~11 µM. The “Log2 reporter intensity values: UCHL3” value on UCHL3 [3] (20 nM ABP 2 alone) is 2.007 and 1.656 and 1.566. In addition, the “Log2 reporter intensity values” at UCHL3 [3] (20 nM ABP 2) is 1.005 and 0.7277 and 0.6472 and 0.9988 and 0.6478 and 0.5579.

For the compound `N#CN1CCC[C@@H]1C(=O)N1CCc2c(-c3c[nH]c4ncccc34)cccc21` [Compound 3], the concentration for half-maximal inhibition (IC50) on USP22, at USP34, at UCHL3 [1] and on USP10 was > 10 µM throughout. In addition, the EC50 at 3 days in data set [2] is ~23 µM. Moreover, the “Log2 reporter intensity values: UCHL3” value on UCHL3 [3] (3 at 1 μM, competition with ABP 2) is 1.501 and 1.531 and 1.889; on UCHL3 [3] (3 at 4 μM, competition with ABP 2) it was 1.509 and 1.358 and 1.681. Also, the “Log2 reporter intensity values” is 0.4924 and 0.5226 and 0.8806 on UCHL3 [3] (3_1 μM); 0.5004 and 0.3501 and 0.6732 at UCHL3 [3] (3_4 μM); 0.5856 and 0.6143 and 0.9175 at UCHL3 [3] (3 at 1 μM); 0.5932 and 0.4418 and 0.7497 on UCHL3 [3] (3 at 4 μM).

Take `CC(=O)O/N=C1\C(=O)N(Cc2cc(Cl)ccc2Cl)c2ccc(Cl)cc21` [LDN-57444, reference compound]: the IC50 on USP22, at USP28, on USP34, on UCHL3 [1] and at USP10 was > 10 µM in each case.

As for `CC(=O)O/N=C1\C(=O)N(Cc2cc(Cl)ccc2Cl)c2ccc(Cl)cc21` [LDN], the “Log2 reporter intensity values: UCHL3” value is 1.511 and 1.383 and 1.619 on UCHL3 [3] (LDN at 5 μM, competition with ABP 2); 1.505 and 1.419 and 1.696 on UCHL3 [3] (LDN at 25 μM, competition with ABP 2). In addition, the “Log2 reporter intensity values” on UCHL3 [3] (LDN at 5 μM) was 0.5958 and 0.4677 and 0.6949; on UCHL3 [3] (LDN at 25 μM) it was 0.5899 and 0.5052 and 0.7625; at UCHL3 [3] (LDN_5 μM), 0.5031 and 0.3746 and 0.6105; on UCHL3 [3] (LDN_25 μM), 0.4969 and 0.4111 and 0.6882.
